Test: isobaric coefficient of expansion
Conditions: Liquid, expansion method

CO [methanol]
Conditions | isobaric coefficient of expansion
248.17 K, 45100 kPa | 0.000942 1/K
248.19 K, 590 kPa | 0.00112 1/K
249.69 K, 80030 kPa | 0.000847 1/K
250.17 K, 20010 kPa | 0.00104 1/K
250.17 K, 45100 kPa | 0.000939 1/K
250.18 K, 590 kPa | 0.00112 1/K
252.18 K, 590 kPa | 0.00113 1/K
252.18 K, 20010 kPa | 0.00103 1/K
252.18 K, 45100 kPa | 0.000938 1/K
252.2 K, 80030 kPa | 0.000842 1/K
254.18 K, 590 kPa | 0.00113 1/K
254.18 K, 20010 kPa | 0.00103 1/K
254.18 K, 45100 kPa | 0.00094 1/K
254.72 K, 80030 kPa | 0.000837 1/K
256.17 K, 590 kPa | 0.00114 1/K
256.17 K, 20010 kPa | 0.00103 1/K
256.18 K, 45100 kPa | 0.000937 1/K
257.2 K, 80030 kPa | 0.00084 1/K
258.17 K, 590 kPa | 0.00113 1/K
258.17 K, 20010 kPa | 0.00104 1/K
258.18 K, 45100 kPa | 0.000937 1/K
259.68 K, 80030 kPa | 0.000841 1/K
260.18 K, 590 kPa | 0.00113 1/K
260.18 K, 45100 kPa | 0.000932 1/K
262.17 K, 590 kPa | 0.00114 1/K
262.17 K, 20010 kPa | 0.00103 1/K
262.17 K, 45100 kPa | 0.000936 1/K
262.21 K, 80030 kPa | 0.000841 1/K
264.17 K, 20010 kPa | 0.00103 1/K
264.17 K, 45100 kPa | 0.000938 1/K
264.77 K, 80030 kPa | 0.000839 1/K
266.17 K, 590 kPa | 0.00113 1/K
266.17 K, 20010 kPa | 0.00103 1/K
266.17 K, 45100 kPa | 0.000942 1/K
267.34 K, 80030 kPa | 0.000835 1/K
268.16 K, 20010 kPa | 0.00103 1/K
268.17 K, 590 kPa | 0.00114 1/K
268.17 K, 45100 kPa | 0.000934 1/K
269.32 K, 80030 kPa | 0.000834 1/K
270.16 K, 590 kPa | 0.00114 1/K
270.16 K, 20010 kPa | 0.00104 1/K
272.14 K, 45100 kPa | 0.00094 1/K
272.52 K, 80030 kPa | 0.000831 1/K
274.14 K, 45100 kPa | 0.000947 1/K
274.15 K, 20010 kPa | 0.00104 1/K
275.11 K, 80030 kPa | 0.000835 1/K
276.12 K, 590 kPa | 0.00114 1/K
276.14 K, 45100 kPa | 0.000938 1/K
276.15 K, 20010 kPa | 0.00104 1/K
277.69 K, 80030 kPa | 0.000835 1/K
278.13 K, 45100 kPa | 0.00094 1/K
278.15 K, 20010 kPa | 0.00104 1/K
278.16 K, 590 kPa | 0.00115 1/K
280.14 K, 45100 kPa | 0.00094 1/K
280.15 K, 20010 kPa | 0.00104 1/K
280.16 K, 590 kPa | 0.00115 1/K
280.28 K, 80030 kPa | 0.000833 1/K
282.13 K, 45100 kPa | 0.00094 1/K
282.15 K, 590 kPa | 0.00116 1/K
282.15 K, 20010 kPa | 0.00104 1/K
282.88 K, 80030 kPa | 0.000832 1/K
284.13 K, 45100 kPa | 0.000945 1/K
284.14 K, 590 kPa | 0.00116 1/K
284.14 K, 20010 kPa | 0.00104 1/K
285.53 K, 80030 kPa | 0.000829 1/K
286.15 K, 590 kPa | 0.00118 1/K
286.15 K, 20010 kPa | 0.00105 1/K
288.14 K, 45100 kPa | 0.000945 1/K
288.16 K, 590 kPa | 0.00117 1/K
288.17 K, 80030 kPa | 0.000826 1/K
289.13 K, 590 kPa | 0.00118 1/K
290.13 K, 45100 kPa | 0.000945 1/K
290.14 K, 20010 kPa | 0.00106 1/K
290.16 K, 590 kPa | 0.00117 1/K
290.79 K, 80030 kPa | 0.000832 1/K
291.13 K, 590 kPa | 0.00118 1/K
292.14 K, 45100 kPa | 0.000943 1/K
292.15 K, 20010 kPa | 0.00104 1/K
292.16 K, 590 kPa | 0.00117 1/K
293.12 K, 590 kPa | 0.00119 1/K
293.4 K, 80030 kPa | 0.000846 1/K
294.13 K, 45100 kPa | 0.000938 1/K
294.14 K, 20010 kPa | 0.00105 1/K
294.16 K, 590 kPa | 0.00118 1/K
295.12 K, 590 kPa | 0.0012 1/K
296.02 K, 80030 kPa | 0.000842 1/K
296.13 K, 45100 kPa | 0.00094 1/K
296.14 K, 20010 kPa | 0.00105 1/K
296.16 K, 590 kPa | 0.00117 1/K
297.12 K, 590 kPa | 0.00118 1/K
298.13 K, 45100 kPa | 0.000942 1/K
298.15 K, 20010 kPa | 0.00105 1/K
298.17 K, 590 kPa | 0.00118 1/K
298.65 K, 80030 kPa | 0.00085 1/K
300.16 K, 590 kPa | 0.00119 1/K
301.27 K, 80030 kPa | 0.000833 1/K

Reference: the NIST ThermoML archive (doi:10.1021/je060415l)
